Assay results published in ChEMBL document CHEMBL5465560, “Selectivity Literature for EUbOPEN Chemogenomic Library” (2024).

Key:
[1] = biological target: Ephrin type-A receptor 4 (Homo sapiens, UniProt P54764); assay: Selectivity interaction (Kinase panel (33PanQinase(R) Activity Assay)) EUB0000877a EPHA4
[2] = biological target: T1, Ephrin type-B receptor 4 (Homo sapiens) (UniProt P54760); assay: Selectivity interaction (KinomeScan (DiscoverX)) EUB0000607a EPHB4; details: at 10 µM
T1 sequence (whole entry): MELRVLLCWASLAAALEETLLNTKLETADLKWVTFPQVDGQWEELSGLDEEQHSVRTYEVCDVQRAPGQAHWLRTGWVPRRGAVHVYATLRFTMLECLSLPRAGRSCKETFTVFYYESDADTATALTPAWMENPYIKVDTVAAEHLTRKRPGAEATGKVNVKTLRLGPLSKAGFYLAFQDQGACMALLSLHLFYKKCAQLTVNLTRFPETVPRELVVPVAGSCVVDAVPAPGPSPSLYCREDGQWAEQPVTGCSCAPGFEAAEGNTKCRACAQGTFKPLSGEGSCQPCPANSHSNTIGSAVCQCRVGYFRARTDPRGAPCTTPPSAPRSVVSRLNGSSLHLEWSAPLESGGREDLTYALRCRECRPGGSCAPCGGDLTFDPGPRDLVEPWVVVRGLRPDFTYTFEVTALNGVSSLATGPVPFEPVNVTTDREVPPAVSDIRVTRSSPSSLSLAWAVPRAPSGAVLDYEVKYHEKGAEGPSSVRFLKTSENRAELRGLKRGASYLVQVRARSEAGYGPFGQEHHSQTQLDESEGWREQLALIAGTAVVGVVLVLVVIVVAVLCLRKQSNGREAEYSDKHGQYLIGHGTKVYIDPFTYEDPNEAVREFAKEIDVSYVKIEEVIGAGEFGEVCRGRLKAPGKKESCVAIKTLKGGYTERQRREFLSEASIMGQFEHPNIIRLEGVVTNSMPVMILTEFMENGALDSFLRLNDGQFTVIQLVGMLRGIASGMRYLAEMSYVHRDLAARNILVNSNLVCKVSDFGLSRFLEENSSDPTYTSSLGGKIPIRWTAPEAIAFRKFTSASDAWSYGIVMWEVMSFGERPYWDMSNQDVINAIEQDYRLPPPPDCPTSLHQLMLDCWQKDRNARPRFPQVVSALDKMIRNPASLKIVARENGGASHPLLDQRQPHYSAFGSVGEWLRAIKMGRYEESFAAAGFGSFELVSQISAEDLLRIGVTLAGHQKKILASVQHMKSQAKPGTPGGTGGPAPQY

[3] = biological target: Mitogen-activated protein kinase kinase kinase 14 (Homo sapiens) (UniProt Q99558); assay: Selectivity interaction (Kinase panel (Invitrogen)) EUB0000639a MAP3K14; details: at 200 nM
[4] = biological target: CDK7/Cyclin H/MNAT1 (Homo sapiens) (UniProt P51946+P50613+P51948); assay: Selectivity interaction (Kinase panel (Invitrogen)) EUB0000639a CDK7; type: protein-complex assay; details: at 200 nM
[5] = biological target: Homeodomain-interacting protein kinase 3 (Homo sapiens, UniProt Q9H422); assay: Selectivity interaction (ProQinase) EUB0000171b HIPK3
[6] = biological target: Mitogen-activated protein kinase 4 (Homo sapiens) (UniProt P31152); assay: Selectivity interaction (KinomeScan (DiscoverX)) EUB0000695a MAPK4; details: at 100 nM
[7] = biological target: T2, Serine/threonine-protein kinase Nek3 (Homo sapiens) (UniProt P51956); assay: Selectivity interaction (KinomeScan (DiscoverX)) EUB0000595a NEK3; details: at 10 µM
T2 sequence (whole entry): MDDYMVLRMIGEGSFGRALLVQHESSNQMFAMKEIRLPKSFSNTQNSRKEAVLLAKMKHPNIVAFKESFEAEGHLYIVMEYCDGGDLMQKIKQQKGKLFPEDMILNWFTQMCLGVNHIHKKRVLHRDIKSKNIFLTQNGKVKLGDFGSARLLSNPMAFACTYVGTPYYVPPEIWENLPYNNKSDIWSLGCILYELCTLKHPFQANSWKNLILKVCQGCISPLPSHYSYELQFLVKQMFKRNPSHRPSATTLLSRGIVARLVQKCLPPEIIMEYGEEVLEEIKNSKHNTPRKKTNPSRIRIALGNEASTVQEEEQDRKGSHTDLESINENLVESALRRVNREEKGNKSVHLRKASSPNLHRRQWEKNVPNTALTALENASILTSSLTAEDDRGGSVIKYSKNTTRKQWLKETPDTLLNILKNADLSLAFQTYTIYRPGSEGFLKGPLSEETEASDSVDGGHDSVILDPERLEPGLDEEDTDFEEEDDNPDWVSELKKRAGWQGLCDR

[8] = biological target: Serine/threonine-protein kinase VRK2 (Homo sapiens) (UniProt Q86Y07); assay: Selectivity interaction (KinomeScan (DiscoverX)) EUB0000655a VRK2; details: at 10 µM
[9] = biological target: Cyclin-dependent kinase 4 (Homo sapiens, UniProt P11802); assay: Selectivity interaction (KinomeScan (DiscoverX)) EUB0001079a CDK4; details: at 1 µM
[10] = biological target: Cyclin-dependent kinase 13 (Homo sapiens, UniProt Q14004); assay: Selectivity interaction (KinomeScan (DiscoverX)) EUB0001079a CDK13; details: at 1 µM
[11] = biological target: T3, Dual specificity mitogen-activated protein kinase kinase 6 (Homo sapiens) (UniProt P52564); assay: Selectivity interaction (KinomeScan (DiscoverX)) EUB0000092b MAP2K6; details: at 10 µM
T3 sequence (whole entry): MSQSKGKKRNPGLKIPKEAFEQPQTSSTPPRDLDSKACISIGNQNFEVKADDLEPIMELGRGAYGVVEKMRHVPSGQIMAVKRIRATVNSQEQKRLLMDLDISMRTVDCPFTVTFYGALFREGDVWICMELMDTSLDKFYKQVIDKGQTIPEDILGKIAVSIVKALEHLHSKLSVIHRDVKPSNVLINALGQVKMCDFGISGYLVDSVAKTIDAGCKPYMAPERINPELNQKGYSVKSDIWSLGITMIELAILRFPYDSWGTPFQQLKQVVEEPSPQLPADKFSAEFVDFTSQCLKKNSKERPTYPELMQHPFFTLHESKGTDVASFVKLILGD

[12] = biological target: T4, Phosphatidylinositol 5-phosphate 4-kinase type-2 alpha (Homo sapiens) (UniProt P48426); assay: Selectivity interaction (ActivX KiNativ screen (ex vivo kinase selectivity in human PBMCs)) EUB0001619a PIP4K2A; type: cell-based; details: PBMC, at 1 µM
T4 sequence (whole entry): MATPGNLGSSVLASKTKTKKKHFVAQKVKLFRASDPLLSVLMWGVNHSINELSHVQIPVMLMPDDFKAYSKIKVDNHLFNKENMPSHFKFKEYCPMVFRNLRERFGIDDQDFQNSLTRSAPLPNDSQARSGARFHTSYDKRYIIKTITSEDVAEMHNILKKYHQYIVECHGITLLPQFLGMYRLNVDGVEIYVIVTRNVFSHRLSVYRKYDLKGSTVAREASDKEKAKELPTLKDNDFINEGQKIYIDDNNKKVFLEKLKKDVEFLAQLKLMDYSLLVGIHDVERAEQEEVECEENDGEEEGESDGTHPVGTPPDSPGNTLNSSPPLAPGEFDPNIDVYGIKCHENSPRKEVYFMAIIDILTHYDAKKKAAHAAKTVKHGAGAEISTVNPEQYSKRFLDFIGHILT

Chain of Homeodomain-interacting protein kinase 3 (Q9H422 whole entry, looked up): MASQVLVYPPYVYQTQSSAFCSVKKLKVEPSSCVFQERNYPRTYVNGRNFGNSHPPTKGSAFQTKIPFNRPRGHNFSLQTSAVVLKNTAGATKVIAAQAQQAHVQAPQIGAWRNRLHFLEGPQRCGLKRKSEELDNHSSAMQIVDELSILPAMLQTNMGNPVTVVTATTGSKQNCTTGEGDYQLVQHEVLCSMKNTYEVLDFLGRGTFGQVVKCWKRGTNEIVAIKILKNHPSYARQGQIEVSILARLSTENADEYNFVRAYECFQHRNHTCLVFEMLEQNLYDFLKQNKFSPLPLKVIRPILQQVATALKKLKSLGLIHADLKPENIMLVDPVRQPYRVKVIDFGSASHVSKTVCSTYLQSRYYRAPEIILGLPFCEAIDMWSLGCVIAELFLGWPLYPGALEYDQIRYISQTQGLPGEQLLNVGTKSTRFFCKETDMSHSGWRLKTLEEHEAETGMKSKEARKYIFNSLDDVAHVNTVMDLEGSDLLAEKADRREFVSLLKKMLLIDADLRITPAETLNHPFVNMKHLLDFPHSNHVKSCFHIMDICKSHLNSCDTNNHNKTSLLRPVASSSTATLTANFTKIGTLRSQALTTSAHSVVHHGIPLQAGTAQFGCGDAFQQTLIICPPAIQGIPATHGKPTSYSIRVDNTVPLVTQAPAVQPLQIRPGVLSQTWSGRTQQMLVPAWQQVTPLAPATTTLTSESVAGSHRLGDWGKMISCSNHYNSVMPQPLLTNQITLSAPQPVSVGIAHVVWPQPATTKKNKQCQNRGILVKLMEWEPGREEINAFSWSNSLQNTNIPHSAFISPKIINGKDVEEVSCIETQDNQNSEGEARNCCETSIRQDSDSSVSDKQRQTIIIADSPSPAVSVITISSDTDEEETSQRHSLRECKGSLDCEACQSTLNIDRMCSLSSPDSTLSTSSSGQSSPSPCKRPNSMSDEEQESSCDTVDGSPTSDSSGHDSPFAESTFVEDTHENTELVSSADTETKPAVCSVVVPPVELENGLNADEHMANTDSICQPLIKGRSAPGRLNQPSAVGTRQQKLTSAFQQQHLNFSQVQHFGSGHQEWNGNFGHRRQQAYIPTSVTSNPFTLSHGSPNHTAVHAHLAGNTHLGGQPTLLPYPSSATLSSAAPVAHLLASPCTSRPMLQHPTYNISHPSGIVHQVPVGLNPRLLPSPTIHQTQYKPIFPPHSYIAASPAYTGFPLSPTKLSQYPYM
Chain of Ephrin type-A receptor 4 (P54764 whole entry): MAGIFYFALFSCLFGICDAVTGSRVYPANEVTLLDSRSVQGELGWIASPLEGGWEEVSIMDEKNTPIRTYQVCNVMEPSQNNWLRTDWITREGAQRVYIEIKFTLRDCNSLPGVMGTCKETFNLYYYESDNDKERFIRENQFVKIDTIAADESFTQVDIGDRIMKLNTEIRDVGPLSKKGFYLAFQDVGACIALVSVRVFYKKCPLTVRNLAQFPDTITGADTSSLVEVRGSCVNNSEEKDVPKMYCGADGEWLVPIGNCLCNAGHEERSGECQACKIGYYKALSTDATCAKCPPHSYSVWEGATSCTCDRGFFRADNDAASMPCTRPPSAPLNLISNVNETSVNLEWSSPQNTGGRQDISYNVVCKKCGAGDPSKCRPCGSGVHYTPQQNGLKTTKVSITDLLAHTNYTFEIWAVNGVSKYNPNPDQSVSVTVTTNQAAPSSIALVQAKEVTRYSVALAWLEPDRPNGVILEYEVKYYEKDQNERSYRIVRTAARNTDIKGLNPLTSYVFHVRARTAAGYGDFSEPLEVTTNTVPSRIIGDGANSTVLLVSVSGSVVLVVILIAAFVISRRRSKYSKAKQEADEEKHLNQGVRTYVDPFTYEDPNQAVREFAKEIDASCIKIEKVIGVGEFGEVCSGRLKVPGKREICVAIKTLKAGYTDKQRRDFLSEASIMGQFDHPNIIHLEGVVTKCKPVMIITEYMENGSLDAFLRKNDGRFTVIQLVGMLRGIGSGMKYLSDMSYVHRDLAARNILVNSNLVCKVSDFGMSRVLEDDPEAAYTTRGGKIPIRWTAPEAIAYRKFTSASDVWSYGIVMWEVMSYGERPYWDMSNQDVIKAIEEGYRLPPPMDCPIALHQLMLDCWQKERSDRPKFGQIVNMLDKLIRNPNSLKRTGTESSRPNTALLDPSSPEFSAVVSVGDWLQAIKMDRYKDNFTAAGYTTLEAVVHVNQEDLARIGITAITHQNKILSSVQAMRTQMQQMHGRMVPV
Chain of Mitogen-activated protein kinase 4 (Homo sapiens) (P31152 whole entry): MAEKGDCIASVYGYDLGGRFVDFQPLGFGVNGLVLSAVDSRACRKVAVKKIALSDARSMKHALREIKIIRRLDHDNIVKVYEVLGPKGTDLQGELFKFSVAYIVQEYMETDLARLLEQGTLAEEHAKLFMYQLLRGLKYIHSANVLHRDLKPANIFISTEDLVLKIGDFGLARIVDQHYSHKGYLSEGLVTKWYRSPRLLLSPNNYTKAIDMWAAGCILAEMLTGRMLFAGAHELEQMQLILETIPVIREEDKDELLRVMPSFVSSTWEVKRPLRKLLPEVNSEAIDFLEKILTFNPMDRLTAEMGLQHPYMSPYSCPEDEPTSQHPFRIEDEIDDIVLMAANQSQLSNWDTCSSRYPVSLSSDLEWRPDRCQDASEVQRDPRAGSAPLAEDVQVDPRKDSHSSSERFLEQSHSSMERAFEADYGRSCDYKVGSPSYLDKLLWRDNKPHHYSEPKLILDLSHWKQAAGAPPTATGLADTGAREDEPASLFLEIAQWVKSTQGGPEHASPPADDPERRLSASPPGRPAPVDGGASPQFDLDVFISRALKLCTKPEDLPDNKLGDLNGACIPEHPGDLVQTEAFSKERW
Chain of Cyclin-dependent kinase 13 (Q14004 whole entry, looked up): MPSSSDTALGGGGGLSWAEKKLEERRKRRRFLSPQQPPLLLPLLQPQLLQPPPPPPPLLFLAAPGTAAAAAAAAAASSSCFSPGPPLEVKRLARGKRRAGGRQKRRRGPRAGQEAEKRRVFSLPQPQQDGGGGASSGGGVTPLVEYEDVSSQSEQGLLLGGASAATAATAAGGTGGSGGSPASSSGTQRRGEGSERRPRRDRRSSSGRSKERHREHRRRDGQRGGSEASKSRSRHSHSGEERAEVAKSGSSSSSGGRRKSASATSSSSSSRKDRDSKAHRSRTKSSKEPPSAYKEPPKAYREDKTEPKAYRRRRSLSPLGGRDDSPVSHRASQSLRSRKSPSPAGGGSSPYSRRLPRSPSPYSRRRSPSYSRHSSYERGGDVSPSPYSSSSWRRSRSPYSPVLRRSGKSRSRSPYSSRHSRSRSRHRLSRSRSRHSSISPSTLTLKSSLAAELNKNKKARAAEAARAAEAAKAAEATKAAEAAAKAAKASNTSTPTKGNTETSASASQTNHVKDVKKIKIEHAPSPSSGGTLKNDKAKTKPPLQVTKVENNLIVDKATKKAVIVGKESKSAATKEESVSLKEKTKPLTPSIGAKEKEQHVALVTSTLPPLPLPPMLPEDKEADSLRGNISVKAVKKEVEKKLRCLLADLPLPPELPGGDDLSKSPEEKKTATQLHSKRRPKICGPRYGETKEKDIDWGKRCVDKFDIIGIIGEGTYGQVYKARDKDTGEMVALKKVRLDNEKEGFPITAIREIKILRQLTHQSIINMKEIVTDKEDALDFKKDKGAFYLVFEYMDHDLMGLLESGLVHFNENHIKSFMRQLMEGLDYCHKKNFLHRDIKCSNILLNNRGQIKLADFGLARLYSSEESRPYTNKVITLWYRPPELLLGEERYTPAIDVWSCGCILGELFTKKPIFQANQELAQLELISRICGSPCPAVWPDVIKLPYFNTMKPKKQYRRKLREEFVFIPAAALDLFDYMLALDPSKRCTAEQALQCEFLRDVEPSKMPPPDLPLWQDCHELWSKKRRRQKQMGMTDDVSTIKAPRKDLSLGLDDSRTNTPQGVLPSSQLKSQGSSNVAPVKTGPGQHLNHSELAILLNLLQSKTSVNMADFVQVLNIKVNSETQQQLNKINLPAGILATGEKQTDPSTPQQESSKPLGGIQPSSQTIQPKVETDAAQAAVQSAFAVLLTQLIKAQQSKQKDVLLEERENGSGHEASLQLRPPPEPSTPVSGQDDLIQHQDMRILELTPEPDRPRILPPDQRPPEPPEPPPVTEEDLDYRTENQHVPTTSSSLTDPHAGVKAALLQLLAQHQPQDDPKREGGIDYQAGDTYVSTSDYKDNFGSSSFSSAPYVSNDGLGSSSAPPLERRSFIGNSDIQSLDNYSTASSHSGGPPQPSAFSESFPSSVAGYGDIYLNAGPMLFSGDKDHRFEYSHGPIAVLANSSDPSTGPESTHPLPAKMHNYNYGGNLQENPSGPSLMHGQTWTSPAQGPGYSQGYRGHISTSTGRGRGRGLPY
Chain of Serine/threonine-protein kinase VRK2 (Homo sapiens) (Q86Y07 whole entry): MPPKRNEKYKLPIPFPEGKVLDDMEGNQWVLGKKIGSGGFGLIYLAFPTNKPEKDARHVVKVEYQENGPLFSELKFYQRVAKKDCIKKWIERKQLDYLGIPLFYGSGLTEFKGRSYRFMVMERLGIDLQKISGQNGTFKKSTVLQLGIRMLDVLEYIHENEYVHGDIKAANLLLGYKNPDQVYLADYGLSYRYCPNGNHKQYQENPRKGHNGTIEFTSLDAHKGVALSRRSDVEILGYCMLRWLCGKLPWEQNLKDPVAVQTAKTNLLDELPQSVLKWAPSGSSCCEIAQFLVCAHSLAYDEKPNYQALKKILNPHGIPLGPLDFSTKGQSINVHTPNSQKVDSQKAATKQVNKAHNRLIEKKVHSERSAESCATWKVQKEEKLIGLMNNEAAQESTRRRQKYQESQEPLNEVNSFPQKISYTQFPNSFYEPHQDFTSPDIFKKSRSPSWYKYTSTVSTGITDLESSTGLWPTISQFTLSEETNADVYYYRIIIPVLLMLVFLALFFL

## CCC(=O)N1CC[C@H](Nc2ncnc3c2CN(c2cnc(OC)c(C(F)(F)F)c2)CC3)C1 [LENIOLISIB]
[1]
  IC50: > 10 µM

## CNC(=O)Nc1ccc(-c2nc(N3CC4CCC(C3)O4)c3cnn(C4CCC5(CC4)OCCO5)c3n2)cc1
[2]
  % of control: 100%

## CC[C@@H]1[C@H](F)C(=O)N[C@@H]1COc1nccc2cc(C(N)=O)c(OC)cc12 [ZIMLOVISERTIB]
[3]
  % of inhibition: -0.0527%
[4]
  % of inhibition: 2.84%

## C=CC(=O)Nc1cccc(C(=O)Nc2ccc(Nc3cc(-c4[nH]c(SC)nc4C)ccn3)cc2)c1
[5]; at 1 µM
  % of control: 93%
[5]; at 5 µM
  % of control: 90%

## Cc1cc(F)c(C(=O)Nc2cccc(-c3nncn3C(C)C)n2)cc1-n1cnc(C2CC2)c1
[6]
  % of control: 100%

## COCC(=O)NC/C=C/c1ccc2ncnc(Nc3ccc(Oc4ccc(C)nc4)c(C)c3)c2c1 [CP-724714]
[7]
  % of control: 95%

## CN(C)CCOc1ccc(-c2nc(-c3ccncc3)c(-c3ccc4c(c3)CC/C4=N\O)[nH]2)cc1
[8]
  % of control: 94%

## Nc1cnc(N2CCc3cc(S(=O)(=O)Nc4c(F)cc(Cl)cc4F)cc(N4CCCC4=O)c32)nc1 [TP-020n]
[9]
  % of control: 97%
[10]
  % of control: 100%

## CCC(=O)N1CCN(c2ccc(-n3c(=O)ccc4cnc5ccc(-c6cnc7ccccc7c6)cc5c43)cc2C(F)(F)F)CC1
[11]
  % of control: 100%

## N#Cc1cccc(-c2c[nH]c3ncnc(N4CCOCC4)c23)c1
[12]
  % of inhibition: 16%
